Tested on: thrombin
Assay: THROGA (thrombin generation assay): maximal thrombin generation in citrate blood or plasma of treated patients
Type: in vivo, human
Procedure: For maximal generation of thrombin, a small amount of anti-coagulant blood or plasma is used. For this, citrate, but also every other anti-coagulant may be used. 0.1 ml citrate blood or citrate plasma each are put into a reference tube (NaCl) and an activator tube (tissue factor+mixture of ellagic acid and phospholipids) in which a defined amount of hirudin is present. After closing the reaction vessels, the two containers are mixed in a mini shaker at 550 rpm at room temperature for 25 minutes. The activation of coagulation is subsequently terminated with a stop solution containing EDTA and the remaining not-consumed free hirudin is determined with a precise detection method. For the exact measurement of the hirudin content in the reaction vessels, a commercial available chromogenic hirudin determination method via chromogenic substrate (ECA, Ecarin Chromogenic Assay, WO 0046602) is employed.
For one determination, 100 μl citrate blood or citrate plasma, respectively, are put into one activator tube and one reference tube each. In order to avoid evaporation, the tubes should be closed after dissolving (“Lösen”). Subsequently, the tubes are put into a shaker for 30-60 minutes. In order to terminate the reaction after shaking, 1000 μl stop reagent are added into each tube and carefully mixed with the pipette.
In both THROGA-samples (reference tube and activator tube) the anti-thrombin units (ATU) are now determined via ECA-H.
From the ATU determined in reference tube and activator tube, respectively, the thrombin units formed in the plasma or blood sample are calculated with the following formula: ETP=R−A • ETP maximal endogenic thrombin potential, thrombin units formed in 1 ml blood or plasma • R anti-thrombin units in the reference tube (ATU/ml blood or plasma) • A anti-thrombin units in the activator tube (ATU/ml blood or plasma) Generating a Reference Curve

[1] = patient two under falithrom, blood
[2] = patient two under falithrom, plasma

| SMILES | ATU/ml; TU/ml (generated thrombin, THROGA-value), blood (patient one, state after cerebral insult, after 8 weeks of clopidogrel, 1.5 tablets daily (112.5 mg), blood, norm 78±13 TU/ml, 99.5 prior to therapy) [TU/ml] | THROGA-values in all further controls (patient one, under clopidogrel therapy) | ATU/ml; TU/ml (generated thrombin, THROGA-value), plasma (patient one, after 8 weeks of clopidogrel, 1.5 tablets daily (112.5 mg), plasma, N: 122±19 TU/ml, 118.5 prior to therapy) [TU/ml] | % of the normal generable thrombin amount in the blood [1] [%] | generated thrombin in the blood [1] [TU/ml] | bleeding tendency (patient two under falithrom, judged from the THROGA-value in blood) | % of the normal plasma value [2] [%] | generated thrombin in the plasma [2] [TU/ml] | Difference control (A) minus activated sample (B), blood (patient two, thrombophilia upon gammopathy, thrombosis prophylaxis with falithrom, blood, use of the kit) [ATU/ml] | Difference control (A) minus activated sample (B), plasma (patient two, thrombosis prophylaxis with falithrom, plasma, use of the kit) [ATU/ml] |
| --- | --- | --- | --- | --- | --- | --- | --- | --- | --- | --- |
| COC(=O)[C@H](c1ccccc1Cl)N1CCc2sccc2C1 [clopidogrel] | 82.2 | normal | 116.9 | – | – | – | – | – | – | – |
| CCC(c1ccccc1)c1c(O)c2ccccc2oc1=O (stereo not shown) [falithrom] | – | – | – | 60 | 46.3 | no bleeding tendency can be observed | 32 | 39.3 | 46.3 | 39.3 |

Reference: patent US8163513B2, “Method for determining the total clotting activity of a blood or plasma sample” (JenAffin GmbH, priority 2005, dated 2012)
